Reference: US9114164B2 (MEXICHEM AMANCO HOLDING S.A. DE C.V., priority 2011, dated 2015)

Assay: in vitro aerosolization performance from MDI, Next Generation Impactor (NGI) with HPLC
Assay type: physicochemical
Conditions: formulated with R-152a rather than R-134a
Procedure: Drug was weighed directly into standard aluminium 19 mL cans (C128, Presspart, Blackburn, UK). The cans were then crimped with a 50 μL valve (Bespak, Kings Lynn, UK). Finally, the propellant was filled into the cans through the valve using a manual Pamasol crimper/filler (Pamasol, Switzerland). High performance liquid chromatography (HPLC) was used to determine drug content following aerosolization studies (see below). The HPLC machine consisted of a pump, column oven, column coupled to a UV detector (all Agilent 1200, Wokingham, Berkshire, UK). A Hypersil BDS C18 column (Fisher, Loughborough, UK, 5 μm, 250×4.6 mm i.d.) was used for high-throughput analysis of samples. The in vitro aerosolization performance of the formulations was studied using a Next Generation Impactor (NGI, Copley Scientific, Nottingham UK), which was connected to a vacuum pump (GE Motors, NJ, USA). Prior to testing, the cups of the NGI system were coated with 1% v/v silicone oil in hexane to eliminate particle bounce. For each experiment, three actuations of the can were discharged into the NGI at 30 L·min^−1 as per pharmacopeia guidelines. […] The mass of drug deposited on each part of the NGI was determined by HPLC. This protocol was repeated three times for the can, following which, the fine particle dose (FPD) and fine particle fraction of the emitted dose (FPFED) were determined.

In the case of salbutamol sulphate, the “emitted dose, comparison in words” value is reported as “significantly (p<0.05) greater”.
